Values joined by “and” are separate entries in the source; they are usually repeats but may differ in a detail not shown here. Equal entries are not always repeated.
Key:
[1] = system: glioblastoma tumor cells; test: Clinical trial: Ki-67 IHC tumor cell proliferation; type: in vivo, human
Description: The design of the trial allowed comparison of the initial glioma (Surgery 1) in these patients to the recurrent glioma which was treated with drug before surgical resection (Surgery 2). Immunohistochemical staining (IHC) was performed on the samples and pathway inhibition was measured via pS6 Ser235/6, pS6K1 Thr389, p4E-BP1 Thr37/46, and pPRAS40 Thr246 (FIG. 1E, upper panel). Cellular proliferation was measured via Ki-67 IHC. These IHC measurements were compared to one another and reported as a percentage decrease or increase of Surgery2/Surgery 1. Samples which had reduction of all four phospho-protein measurements in Surgery 2 also had the greatest relative decreases in cellular proliferation (FIG. 1E, lower panel). Samples which had no inhibition of any pharmacodynamic biomarker or inhibition of only one pharmacodynamic biomarker were most likely to see a relative increase in proliferation.
To compare the relative change in cellular proliferation in the three drug arms and a drug naïve population, a control population was formed of patients who had not been treated with any PI3K inhibitor and surgical samples available from two surgical resections and compared their relative proliferation via Ki-67 IHC (FIG. 12A). This control group was compared with the three arms of the trial. […] There was no statistically significant change in proliferation between the control group and the other arms of the trial.
To determine the Ki-67 labeling index, slides were analyzed as with the phospho-proteins, and the number of positively stained and total number of cells was determined for each image. The percentage of Ki-67 positive cells was calculated for each image, then the three images were averaged.

[2] = Clinical trial: primary reason for discontinuation from study treatment; type: in vivo, human; settings: SAR408 200 mg once daily (N = 6)
Text: All 21 patients discontinued treatment prior to receiving 1 year of postsurgery treatment. Time to tumor progression (TTP) for all patients is presented FIG. 2A.

[3] = biological target: PI3Kδ (Homo sapiens, UniProt O00329); settings: cited from earlier work
[4] = Clinical trial: safety, adverse events (CTCAE v4.0)
[5] = biological target: PI3Kα (Homo sapiens, UniProt P42336); settings: cited from earlier work
[6] = system: PI3K/mTOR pathway; test: Clinical trial: IHC of PI3K/mTOR pathway markers in GBM tumor tissue; type: in vivo, human; settings: patients treated 10-28 days before surgery
Description: To evaluate pharmacodynamic effects in tumor tissue, immuno-histochemistry (IHC) was performed with phosphorylation-site specific antibodies against four PI3K/mTOR pathway components: Proline-Rich Akt Substrate of 40-kDa (PRAS40, threonine246), ribosomal protein S6 kinase 1 (S6K1, threonine 389), eukaryotic translation initiation factor 4E-binding protein 1 (4E-BP1, threonine 37/46), and S6 Ribosomal Protein (S6RP, serine 235/236) (FIG. 1D). For each marker staining of several thousand tumor cells was quantified and the staining intensity in the “on-treatment”-biopsy (Surgery 2) was compared with the staining intensity in the tumor sample collected from the same patient at diagnosis (Surgery 1). This “matched-pair” analysis included 19/21 evaluable patients (Table 3) who received at least one dose of study drug, had detectable phospho-S6RP in the pre-treatment sample (Surgery 1), and had tissue of sufficient quality collected on treatment (Surgery 2).
The design of the trial allowed comparison of the initial glioma (Surgery 1) in these patients to the recurrent glioma which was treated with drug before surgical resection (Surgery 2). Immunohistochemical staining (IHC) was performed on the samples and pathway inhibition was measured via pS6 Ser235/6, pS6K1 Thr389, p4E-BP1 Thr37/46, and pPRAS40 Thr246 (FIG. 1E, upper panel). Cellular proliferation was measured via Ki-67 IHC. […]
Immunohistochemical (IHC) staining of patient samples was performed on formalin-fixed paraffin-embedded (FFPE) tumor tissues collected at the initial surgery and recurrent tumor surgery. […] Immunoreactivity was detected using NovaRED Peroxidase Substrate kit (Vector Labs SK-4800) and sections were counterstained with hematoxylin.
To analyze pathway inhibition, three representative tumor images from each slide stained with phospho-proteins were taken, after determining the presence of tumor cells based on hematoxylin staining evaluation. […] The tumor to normal ratio was calculated by dividing the average of the tumor images by the average of the normal tissue image. […]

[7] = biological target: PI3Kγ (Homo sapiens, UniProt P48736); settings: cited from earlier work
[8] = biological target: PI3Kβ (Homo sapiens, UniProt P42338); settings: cited from earlier work
[9] = system: panel of 130 other kinases; settings: Cloughesy et al., 2013; cited from earlier work
[10] = system: recurrent glioblastoma; test: Clinical trial: time to progression and tumor response; type: in vivo, human
[11] = biological target: mTOR (Homo sapiens, UniProt P42345); settings: cited from earlier work
[12] = SAR408 200 mg once daily (N = 6)

Sequence of PI3Kβ (P42338 whole entry): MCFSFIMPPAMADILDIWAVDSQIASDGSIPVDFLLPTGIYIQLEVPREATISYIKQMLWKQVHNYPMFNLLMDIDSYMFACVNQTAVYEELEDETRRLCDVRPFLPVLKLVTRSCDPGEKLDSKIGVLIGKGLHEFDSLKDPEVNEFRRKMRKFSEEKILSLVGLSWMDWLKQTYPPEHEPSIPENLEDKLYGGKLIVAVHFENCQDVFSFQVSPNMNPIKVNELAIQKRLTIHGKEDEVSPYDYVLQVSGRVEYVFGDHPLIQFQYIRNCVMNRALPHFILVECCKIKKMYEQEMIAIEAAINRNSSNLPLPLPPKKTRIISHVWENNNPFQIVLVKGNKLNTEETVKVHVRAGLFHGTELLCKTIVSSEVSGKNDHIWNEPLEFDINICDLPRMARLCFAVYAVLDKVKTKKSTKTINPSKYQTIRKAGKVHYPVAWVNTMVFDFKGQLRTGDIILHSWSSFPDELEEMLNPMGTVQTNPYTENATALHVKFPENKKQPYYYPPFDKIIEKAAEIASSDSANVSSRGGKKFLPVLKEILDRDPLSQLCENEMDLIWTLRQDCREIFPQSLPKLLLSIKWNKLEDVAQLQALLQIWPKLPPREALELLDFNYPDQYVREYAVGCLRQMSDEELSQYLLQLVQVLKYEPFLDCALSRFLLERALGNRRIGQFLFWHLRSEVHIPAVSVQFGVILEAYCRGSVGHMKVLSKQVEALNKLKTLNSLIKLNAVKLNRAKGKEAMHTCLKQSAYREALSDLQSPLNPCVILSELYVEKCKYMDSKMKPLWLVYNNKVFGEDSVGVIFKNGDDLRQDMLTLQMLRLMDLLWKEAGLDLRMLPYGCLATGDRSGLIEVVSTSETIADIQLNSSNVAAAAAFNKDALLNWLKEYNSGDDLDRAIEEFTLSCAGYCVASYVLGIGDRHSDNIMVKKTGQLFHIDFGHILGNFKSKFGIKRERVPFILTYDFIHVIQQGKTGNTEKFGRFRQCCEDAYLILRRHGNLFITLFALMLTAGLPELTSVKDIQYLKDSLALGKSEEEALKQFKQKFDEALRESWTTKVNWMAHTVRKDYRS
Sequence of PI3Kβ (P27986 whole entry partner): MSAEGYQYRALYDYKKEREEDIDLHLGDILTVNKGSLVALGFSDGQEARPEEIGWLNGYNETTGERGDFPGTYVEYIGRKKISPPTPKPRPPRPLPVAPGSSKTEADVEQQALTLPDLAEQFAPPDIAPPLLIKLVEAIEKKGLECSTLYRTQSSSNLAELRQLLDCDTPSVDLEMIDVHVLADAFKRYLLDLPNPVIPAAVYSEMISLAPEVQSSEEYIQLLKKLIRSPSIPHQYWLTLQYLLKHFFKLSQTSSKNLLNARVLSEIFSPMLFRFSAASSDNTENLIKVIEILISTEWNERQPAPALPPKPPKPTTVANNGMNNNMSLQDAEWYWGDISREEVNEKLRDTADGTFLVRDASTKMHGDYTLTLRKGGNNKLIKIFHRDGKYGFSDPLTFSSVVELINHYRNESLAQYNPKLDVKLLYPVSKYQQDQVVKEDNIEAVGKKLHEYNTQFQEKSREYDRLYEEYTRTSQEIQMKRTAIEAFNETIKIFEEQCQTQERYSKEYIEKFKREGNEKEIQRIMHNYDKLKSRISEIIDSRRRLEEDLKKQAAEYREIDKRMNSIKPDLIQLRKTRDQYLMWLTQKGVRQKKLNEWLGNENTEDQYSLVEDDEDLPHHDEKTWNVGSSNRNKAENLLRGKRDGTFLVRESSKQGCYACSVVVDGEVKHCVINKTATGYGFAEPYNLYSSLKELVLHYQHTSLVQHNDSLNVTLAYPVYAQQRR
Sequence of PI3Kδ (O00329 whole entry): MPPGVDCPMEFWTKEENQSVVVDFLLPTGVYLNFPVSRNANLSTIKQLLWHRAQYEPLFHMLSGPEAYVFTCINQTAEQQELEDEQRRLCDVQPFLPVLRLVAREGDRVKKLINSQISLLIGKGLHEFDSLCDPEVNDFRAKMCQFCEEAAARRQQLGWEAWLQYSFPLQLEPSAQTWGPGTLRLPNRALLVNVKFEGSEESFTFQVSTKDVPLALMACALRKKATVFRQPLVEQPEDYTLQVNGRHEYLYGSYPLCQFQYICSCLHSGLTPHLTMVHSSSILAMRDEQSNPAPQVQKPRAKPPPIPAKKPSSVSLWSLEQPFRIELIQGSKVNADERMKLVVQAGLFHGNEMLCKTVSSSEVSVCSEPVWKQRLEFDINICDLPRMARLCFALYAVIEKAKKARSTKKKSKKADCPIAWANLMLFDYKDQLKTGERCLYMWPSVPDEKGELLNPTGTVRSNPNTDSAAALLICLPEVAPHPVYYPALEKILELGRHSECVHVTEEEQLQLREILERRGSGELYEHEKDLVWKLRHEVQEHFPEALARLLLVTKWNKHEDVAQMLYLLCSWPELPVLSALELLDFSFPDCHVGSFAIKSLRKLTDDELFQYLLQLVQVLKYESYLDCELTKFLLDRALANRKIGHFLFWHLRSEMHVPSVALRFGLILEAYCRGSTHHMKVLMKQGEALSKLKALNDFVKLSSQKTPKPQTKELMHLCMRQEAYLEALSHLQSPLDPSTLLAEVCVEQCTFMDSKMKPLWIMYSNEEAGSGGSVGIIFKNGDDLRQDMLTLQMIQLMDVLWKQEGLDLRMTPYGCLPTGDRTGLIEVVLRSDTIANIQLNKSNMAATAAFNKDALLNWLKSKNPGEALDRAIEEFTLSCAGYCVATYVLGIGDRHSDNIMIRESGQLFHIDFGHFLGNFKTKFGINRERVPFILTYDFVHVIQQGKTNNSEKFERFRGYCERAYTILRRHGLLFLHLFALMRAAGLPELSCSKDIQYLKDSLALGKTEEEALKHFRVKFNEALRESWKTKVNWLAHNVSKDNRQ
Sequence of PI3Kδ (P27986 whole entry partner): as the sequence (P27986 whole entry partner) above
Sequence of PI3Kγ (P48736 whole entry): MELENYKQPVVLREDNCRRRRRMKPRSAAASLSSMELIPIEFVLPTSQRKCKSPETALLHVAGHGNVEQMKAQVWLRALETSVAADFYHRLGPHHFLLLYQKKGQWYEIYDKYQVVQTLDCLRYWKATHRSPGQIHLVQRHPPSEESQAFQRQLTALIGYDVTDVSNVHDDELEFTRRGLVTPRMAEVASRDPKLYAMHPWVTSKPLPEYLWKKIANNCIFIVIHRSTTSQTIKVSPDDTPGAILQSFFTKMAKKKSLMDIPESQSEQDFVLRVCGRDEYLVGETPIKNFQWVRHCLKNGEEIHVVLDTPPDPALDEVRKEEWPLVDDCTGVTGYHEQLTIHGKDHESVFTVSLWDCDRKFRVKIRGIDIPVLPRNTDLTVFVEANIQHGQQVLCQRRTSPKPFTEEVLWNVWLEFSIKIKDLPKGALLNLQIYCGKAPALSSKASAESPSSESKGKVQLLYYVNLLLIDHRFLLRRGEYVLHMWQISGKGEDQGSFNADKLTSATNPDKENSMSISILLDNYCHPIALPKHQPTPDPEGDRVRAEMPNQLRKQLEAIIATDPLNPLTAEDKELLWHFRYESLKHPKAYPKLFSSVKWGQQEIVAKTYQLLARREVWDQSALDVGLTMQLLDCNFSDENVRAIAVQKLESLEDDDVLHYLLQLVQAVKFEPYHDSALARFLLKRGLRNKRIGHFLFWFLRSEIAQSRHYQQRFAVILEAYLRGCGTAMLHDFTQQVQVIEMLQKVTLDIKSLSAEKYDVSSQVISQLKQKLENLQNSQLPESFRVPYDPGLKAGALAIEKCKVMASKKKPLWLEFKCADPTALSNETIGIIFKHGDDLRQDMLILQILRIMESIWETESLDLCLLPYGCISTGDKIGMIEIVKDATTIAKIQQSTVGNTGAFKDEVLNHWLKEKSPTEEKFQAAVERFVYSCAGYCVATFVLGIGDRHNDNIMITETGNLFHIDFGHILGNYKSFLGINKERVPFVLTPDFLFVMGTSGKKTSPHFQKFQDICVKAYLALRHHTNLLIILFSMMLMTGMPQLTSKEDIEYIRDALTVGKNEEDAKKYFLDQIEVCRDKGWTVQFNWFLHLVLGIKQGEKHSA
Sequence of PI3Kα (P42336 whole entry): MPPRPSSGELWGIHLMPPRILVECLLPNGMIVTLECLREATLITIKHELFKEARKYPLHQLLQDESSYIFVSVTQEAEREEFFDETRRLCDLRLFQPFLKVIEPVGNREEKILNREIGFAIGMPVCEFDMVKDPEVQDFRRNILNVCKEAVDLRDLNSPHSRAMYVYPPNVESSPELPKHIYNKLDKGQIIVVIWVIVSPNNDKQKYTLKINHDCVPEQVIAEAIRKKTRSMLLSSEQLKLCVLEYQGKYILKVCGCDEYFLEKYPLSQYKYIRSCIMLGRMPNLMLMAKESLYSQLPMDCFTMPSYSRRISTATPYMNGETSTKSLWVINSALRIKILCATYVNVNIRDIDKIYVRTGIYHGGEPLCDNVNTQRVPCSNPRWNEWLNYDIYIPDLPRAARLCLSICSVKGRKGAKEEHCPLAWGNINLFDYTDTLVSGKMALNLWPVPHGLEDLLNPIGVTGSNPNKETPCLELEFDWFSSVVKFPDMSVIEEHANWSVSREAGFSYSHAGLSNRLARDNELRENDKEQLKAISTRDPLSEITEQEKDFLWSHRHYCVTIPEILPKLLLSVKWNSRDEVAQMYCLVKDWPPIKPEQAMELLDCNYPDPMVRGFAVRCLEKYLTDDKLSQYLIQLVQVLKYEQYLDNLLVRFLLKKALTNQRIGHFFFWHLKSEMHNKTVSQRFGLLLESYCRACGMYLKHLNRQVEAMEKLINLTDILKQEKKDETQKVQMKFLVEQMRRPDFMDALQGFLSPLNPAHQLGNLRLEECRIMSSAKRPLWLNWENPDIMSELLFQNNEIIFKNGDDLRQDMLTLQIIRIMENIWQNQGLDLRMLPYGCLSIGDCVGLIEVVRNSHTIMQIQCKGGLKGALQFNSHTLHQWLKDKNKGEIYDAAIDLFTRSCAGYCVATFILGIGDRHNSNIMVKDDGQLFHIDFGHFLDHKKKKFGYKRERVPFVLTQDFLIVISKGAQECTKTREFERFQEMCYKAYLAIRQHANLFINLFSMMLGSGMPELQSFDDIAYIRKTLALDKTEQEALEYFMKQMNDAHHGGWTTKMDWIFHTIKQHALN
Sequence of PI3Kα (P27986 whole entry partner): as the sequence (P27986 whole entry partner) above

Question: With `COc1ccc(Cl)c(Nc2nc3ccccc3nc2NS(=O)(=O)c2cccc(NC(=O)C(C)(C)N)c2)c1` [SAR408, pilaralisib] as the compound, how does the “change in proliferation (Ki-67) compared to untreated control population” value ([1]; 200 mg/QD SAR245408 arm) read?
Answer: not significantly different

Question: What about the “cellular proliferation in tumor, Surgery 2 vs Surgery 1” value ([1]; patients treated 10-28 days before surgery) of the same compound?
Answer: Reduced Cellular Proliferation

Question: And the “Discontinuation: Adverse Event or SAE unrelated to disease progression” value [2]?
Answer: 0 n (%)

Question: And the “Discontinuation: Clinical disease progression per principal investigator” value [2]?
Answer: 0 n (%)

Question: What about the “Discontinuation: Disease progression per modified RANO” value [2] of the same compound?
Answer: 6 (100.0) n (%)

Question: And the IC50 [3]?
Answer: 10 nM

Question: What about the “Patients with any Grade 3/4 TEAE” value [4, 12] of the same compound?
Answer: 2 n (%) and 2 (33.3) n (%)

Question: And the “Patients with any Grade 3/4 treatment-emergent SAE” value [4, 12]?
Answer: 1 (16.7) n (%)

Question: What about the “Patients with any TEAE” value [4, 12] of the same compound?
Answer: 6 (100.0) n (%)

Question: What about the “Patients with any TEAE leading to death” value [4, 12] of the same compound?
Answer: 0 n (%)

Question: And the “Patients with any TEAE leading to dose reduction or interruption” value [4, 12]?
Answer: 0 n (%)

Question: What about the “Patients with any TEAE leading to permanent treatment discontinuation” value [4, 12] of the same compound?
Answer: 0 n (%)

Question: And the “Patients with any related Grade 3/4 TEAE” value [4, 12]?
Answer: 0 n (%)

Question: And the “Patients with any related Grade 3/4 treatment-emergent SAE” value [4, 12]?
Answer: 0 n (%)

Question: What about the “Patients with any related TEAE” value [4, 12] of the same compound?
Answer: 3 n (%) and 3 (50.0) n (%)

Question: And the “Patients with any related treatment-emergent SAE” value [4, 12]?
Answer: 0 n (%)

Question: What about the “Patients with any treatment emergent SAE” value [4, 12] of the same compound?
Answer: 1 n (%) and 1 (16.7) n (%)

Question: What about the “TEAEs of ALT increased, AST increased, blood bilirubin increased or gamma-glutamyltransferase increased” value ([4]; SAR408 once daily cohort) of the same compound?
Answer: No TEAEs

Question: And the “drug-related TEAE: fatigue” value ([4]; all cohorts of the drug pooled)?
Answer: 2 patients

Question: And the “tolerability of postoperative treatment” value ([4]; seventeen patients who resumed drug postoperatively)?
Answer: tolerated it well

Question: What about the IC50 [5] of the same compound?
Answer: 48 nM

Question: And the “PI3K/mTOR pathway inhibition in tumor, Surgery 2 vs Surgery 1” value [6]?
Answer: Inhibition of the PI3K/mTOR Pathway

Question: And the IC50 [7]?
Answer: 260 nM

Question: What about the IC50 [8] of the same compound?
Answer: 617 nM

Question: What about the “inhibition of a panel of 130 other kinases” value [9] of the same compound?
Answer: do not significantly inhibit

Question: What about the “TTP (time to progression), individual patients” value ([10]; SAR408 200 mg/QD) of the same compound?
Answer: 6.14 wks (2×) and 18.29 wks and 10.14 wks and 6 wks and 4.57 wks

Question: And the “median time to progression” value ([10]; SAR245408 arm)?
Answer: 6.14 weeks

Question: What about the “range of time to progression” value ([10]; SAR245408 arm) of the same compound?
Answer: 4.57-18.29 weeks

Question: What about the IC50 [11] of the same compound?
Answer: > 15000 nM

Source: patent publication US10632121B2, “Platelet-derived growth factor receptor mutations and compositions and methods relating thereto” (MEMORIAL SLOAN KETTERING CANCER CENTER, priority 2014, dated 2020)
